Test results from publication PMC9293909 (Nature Communications, 2022).

Key:
[1] = system: heart rate and mean arterial blood pressure; assay: Urethane-anaesthetised rat, heart rate and arterial blood pressure; conditions: adenosine 1 mg kg^−1 IV
Description: Anaesthesia was induced in adult male Sprague–Dawley rats (230-330 g) with isofluorane (2–4%; Piramal Healthcare). The femoral vein was catheterised for drug delivery. Anaesthesia was maintained with urethane (1.2–1.7 g kg^−1; Sigma) in sterile saline delivered via the femoral vein catheter. […] The trachea was cannulated and the femoral artery catheterised, and both were connected to pressure transducers (Digitimer) to record respiratory airflow and arterial blood pressure, respectively. Blood pressure and airflow signals were amplified using the NeuroLog system (Digitimer) connected to a micro1401 interface and acquired on a computer using Spike2 software (v7.08a; Cambridge Electronic Design). […] Airflow measurements were used to calculate: tidal volume (VT; mL; pressure sensors were calibrated with a 3 mL syringe), and respiratory frequency (f; breaths min^−1; BrPM). Minute ventilation (VE; mL min^−1) was calculated as f × VT.
Cardiovascular and respiratory parameters were allowed to stabilise before experiments began. A1R agonists were administered by intravenous (IV) injection and the changes in HR, MAP, f, VT, and VE were measured. […] All injections were administered IV as a 350 µl·kg^-1 bolus.

frog heart = assay: Isolated frog heart preparation, heart rate; conditions: adenosine 30 µM
Description: Young adult male Xenopus leavis frogs were obtained from Portsmouth Xenopus Resource Centre. […] The animals were dissected to reveal the heart and the pericardium was carefully removed. Heart contractions were measured with a force transducer (AD instruments). Heart rate was acquired via a PowerLab 26 T (AD instruments) controlled by LabChart 7 (AD instruments). The heart was regularly washed with Ringer solution and drugs were applied directly to the heart.

rA3R [2] = target: T1, rA3R (Rattus norvegicus, UniProt P28647); assay: NanoBRET competition binding with AV039; conditions: displacement of AV039; read-out: pKi rA3R (converted)
T1 construct: expressed in transfected cells; host or cells: Flp-In-CHO (ThermoFisher R75807), pcDNA5/FRT
T1 sequence (P28647 1-320): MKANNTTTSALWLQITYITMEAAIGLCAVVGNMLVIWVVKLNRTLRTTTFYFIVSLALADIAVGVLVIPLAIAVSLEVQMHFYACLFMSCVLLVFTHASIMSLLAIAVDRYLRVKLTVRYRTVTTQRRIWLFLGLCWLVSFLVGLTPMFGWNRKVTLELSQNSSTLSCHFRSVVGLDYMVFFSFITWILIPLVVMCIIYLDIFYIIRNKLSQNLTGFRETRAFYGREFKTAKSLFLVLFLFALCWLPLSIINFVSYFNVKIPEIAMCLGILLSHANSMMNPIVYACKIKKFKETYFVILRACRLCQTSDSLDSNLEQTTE
Description: Here data was fitted with the ‘two-site Ki model’, build into Prism to determine high affinity and low affinity values for the unlabelled agonists. […] BRET was measured following the addition of the Nluc substrate, Furimazine (0.1 μM).

rA3R [3] = target: T1, rA3R; assay: cAMP inhibition at rA3R (Flp-In-CHO); format: cell-based
Text: Cell lines were maintained using standard subculturing routines as guided by the European Collection of Cell Culture (ECACC) and checked annually for mycoplasma infection using an EZ-PCR mycoplasma test kit from Biological Industries (Kibbutz Beit-Haemek, Israel). To investigate the signalling properties of the rat A3R (rA3R) and mutants of the human A1R (hA1R), stable cell lines were generated using Flp-In-CHO cells (ThermoFisher - R75807). Untagged hA1R from sigNanoLuciferase (Nluc)-A1R in pcDNA3.1+ and untagged rA3R from sigNluc-A3R in pcDNA3.1 + (both gifted by Dr Steve Briddon (University of Nottingham)) were cloned into the pcDNA5/FRT expression vector (Thermo Fisher Scientific). Mutations within the hA1R were made using the QuikChange Lightening Site-Directed Mutagenesis Kit (Agilent Technologies) in accordance with the manufacturer’s instructions. Constructs for generating Goa/b interfering and scrambled peptides were generated by PCR and cloned into the BamHI/HindIII site of pcDNA3.1- as described in Gilchrist et al.[60],. Prior to the initiator codon a Kozak sequence was included for enhanced translation. The peptide sequences used were: for Goa […], for Gob […], and for the scrambled peptide […] was used. Constructs were sequenced to confirm fidelity. Flp-In-CHO cells were generated through co-transfection of the cell line with pcDNA5/FRT expression vector (Thermo Fisher Scientific) containing the WT or mutant hA1R, or rA3R, and the Flp recombinase expressing plasmid, pOG44 (Thermo Fisher Scientific), in accordance with the manufacturer’s instructions. […] CHO cell lines expressing ARs of interest (including mutants of the hA1R) were routinely cultured in Ham’s F-12 nutrient mix supplemented with 10% foetal bovine serum (FBS), at 37 °C with 5% CO2, in a humidified atmosphere.

[4] = target: T2, β-arrestin2 recruitment to hA3R (Homo sapiens, UniProt P0DMS8); assay: BRET β-arrestin2 recruitment to A3R, HEK 293T; format: cell-based
T2 construct: expressed in transfected cells; host or cells: HEK 293T (ATCC CRL-3216), transient

[5] = system: native presynaptic A1Rs, rat hippocampal slices; assay: Extracellular fEPSP recording, inhibition of excitatory synaptic transmission in hippocampal slices; format: cell-based
Description: Rats were kept on a 12-hour light-dark cycle with slices made 90 min after entering the light cycle. […] The brain was removed, cut down the midline and the two sides of the brain stuck down to a metal base plate using cyanoacrylate glue. […] Slices were stored at 34 °C for 1–6 h in aCSF (1 mM MgCl2, 2 mM CaCl2) before use.
A slice was transferred to the recording chamber, submerged in aCSF and perfused at 4–6 ml min^−1 (32 ± 0.5 °C). The slice was placed on a grid allowing perfusion above and below the tissue and all tubing was gastight (to prevent loss of oxygen). […] Field excitatory postsynaptic potentials (fEPSPs) were evoked with either an isolated pulse stimulator model 2100 (AM Systems, WA) or ISO-Flex (AMPI, Jerusalem, Israel). For fEPSPs a 10–20 min baseline was recorded at a stimulus intensity that gave 40-50% of the maximal response. […] For fEPSP slope, a 1 ms linear region after the fibre volley was measured. Extracellular recordings were made independently on two electrophysiology rigs.
Statistical significance was tested as indicated in the text using paired or unpaired two-tailed t-tests or one-way or two-way ANOVAs with repeated measures (RM) as appropriate. Bonferroni corrections for multiple comparisons were performed. All in vitro cell signalling assay data was analysed using Prism 8.4 (Graphpad software, San Diego, CA), with all concentration-response curves being fitted using a 3 parameter logistic equation to calculate response range and IC50. All cAMP data was normalised to a forskolin concentration-response curve ran in parallel to each assay.

[6] = system: CA1 pyramidal cells (Goa / Gob signalling); assay: Whole-cell voltage-clamp, adenosine-induced outward current with intracellular G protein interfering peptides; format: cell-based, rat; conditions: adenosine 10 µM; control conditions
Description: A slice was transferred to the recording chamber and perfused at 3 ml min^−1 with aCSF at 32 ± 0.5 °C. Slices were visualised using IR-DIC optics with an Olympus BX151W microscope (Scientifica) and a CCD camera (Hitachi). […] Voltage and current recordings were obtained using an Axon Multiclamp 700B amplifier (Molecular Devices, USA) and digitised at 20 KHz. Data acquisition and analysis was performed using pClamp 10 (Molecular Devices, USA). For voltage-clamp experiments, CA1 pyramidal cells were held at −60 mV. Peptides to interfere with G protein signalling were introduced via the patch pipette into the recorded cell.
Drugs were made up as stock solutions (1-10 mM) and then diluted in aCSF or saline on the day of use. […] MRS1523 was purchased from Cayman Chemicals (Cambridge Bioscience Ltd., Cambridge UK). […] CA200645 and peptides for interfering with G protein signalling were obtained from Hello Bio (Bristol, UK) and were based on published sequences. […] The scrambled version was […]. […] Peptides were made up as stock solutions (2 mM) and stored at −20 °C. The stock solutions were dissolved in filtered intracellular solution just before use.

T2 sequence (P0DMS8 whole entry): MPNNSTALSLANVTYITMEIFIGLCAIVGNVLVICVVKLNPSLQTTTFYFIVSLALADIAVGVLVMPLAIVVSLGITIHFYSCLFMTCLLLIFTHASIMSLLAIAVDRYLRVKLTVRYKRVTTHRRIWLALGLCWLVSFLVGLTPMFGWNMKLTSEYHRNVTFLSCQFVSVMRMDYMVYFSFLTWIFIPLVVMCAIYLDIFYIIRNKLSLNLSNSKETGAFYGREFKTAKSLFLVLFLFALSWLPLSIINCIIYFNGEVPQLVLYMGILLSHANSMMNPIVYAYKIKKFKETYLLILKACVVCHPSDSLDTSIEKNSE

## Nc1ncnc2c1ncn2[C@@H]1O[C@H](CO)[C@@H](O)[C@H]1O [Adenosine]
[1]
  reduction of HR: ~ 66%
  reduction of MAP: ~ 47%
[1]; resting 86 ± 9 mm Hg
  MAP after injection: 46 ± 4 mm Hg
[1]; resting 432 ± 21 BPM
  HR after injection: 147 ± 12 BPM
Frog heart
  reduction of heart rate: 6.3 ± 0.6 BPM
Frog heart; before 41.8 ± 1.3 BPM
  heart rate after application: 35.5 ± 1.3 BPM
rA3R [2]
  Ki: 1290 nM
rA3R [3]; half-maximal response, cAMP inhibition, read-out: pIC50 rA3R (converted)
  IC50: 67.6 nM
rA3R [3]; range of response as percentage of response to 10 μM forskolin
  Range rA3R: 66.05 ± 5.4%
[4]
  β-arrestin2 recruitment by the A3R: β-arrestin2 recruitment
[5]; Rattus norvegicus, read-out: IC50 inhibition of synaptic transmission
  IC50: 20000 ± 4300 nM
[5]; adenosine 30 µM
  depression of the fEPSP: 66.7 ± 6.7%
[5]; adenosine 30 µM in the presence of 2-Cl-IB-MECA 1 µM
  depression of the fEPSP: 67.5 ± 6.5%
[6]
  outward current induced by adenosine: 40.6 ± 2.2 pA
